Test results published in PMC9501983, “Transport and Permeation Properties of Dapivirine: Understanding Potential Drug-Drug Interactions” (Pharmaceutics, 2022).

Experiments:
P-gp = target: T1, P-gp (Homo sapiens, UniProt P08183); experiment: Bi-directional transport across MDCKII P-gp and WT cell monolayers; format: in vitro ADME
T1 construct: expressed in transfected cells; host or cells: MDCKII (Madin-Darby canine kidney) cells, provided by Dr. Philip E. Empey

[1] = DPV tissue permeability across excised human ectocervical tissue (in-line cell); format: in vitro ADME; settings: female, human; 182 µM DPV alone in vaginal fluid simulant pH 4.2, 360 min; read-out: Papp across human cervical tissue
Source text: Freshly excised human ectocervical tissue samples from 6 pre-menopausal women were obtained through the Pitt Biospecimen Core at the University of Pittsburgh under an IRB-approved protocol (IRB# PRO09110431). Tissue samples were immersed in ice-cold Dulbecco’s modified Eagle medium during transfer from the surgery site to the laboratory. Tissue samples were then processed as previously reported, where excess stromal tissue was removed using a scalpel, and the epithelium was isolated using a Stadie-Riggs tissue slicer. The isolated epithelium sections were then mounted onto the in-line cell apparatus (PermeGear, Cranford, NJ, USA), a flow-through type Franz cell, with the epithelial side facing the apical compartment. A small piece of tissue sample was fixed in 10% formalin as the pre-treatment control for histology evaluation.
Vaginal fluid simulant was used to prepare drug solutions. Vaginal fluid simulant was prepared using a reported formulation (3.51 g L^−1 sodium chloride, 1.40 g L^−1 potassium hydroxide, 0.22 g L^−1 calcium hydroxide, 0.018 g L^−1 bovine serum albumin, 2.00 g L^−1 lactic acid, 1.00 g L^−1 acetic acid, 0.16 g L^−1 glycerin, 0.4 g L^−1 urea, and 5.0 g L^−1 glucose) and adjusted to pH 4.2 with 1N hydrochloric acid. To evaluate the impact of MIC on DPV tissue permeability, 450 μL of a mixture containing 182 µM (60 μg g^−1) DPV and 63 mM (30 mg g^−1) MIC was added to the apical compartment and compared to 182 µM (60 μg g^−1) DPV alone. […] One half of the tissue sample was fixed in 10% formalin for subsequent histological evaluation, while the other half was used for drug quantification. To quantify drug tissue levels, each tissue sample was digested overnight in 2 mL Solvable held at 50 °C. […] Samples were then cooled to room temperature and 1.5 mL of each sample was used for quantification. To quantify ^3H-DPV and ^14C-mannitol, each vial of collected sample was mixed with 2 mL scintillation cocktail and analyzed on an LS6500 liquid scintillation counter. Papp was calculated using Equation (2) as described above.

CYP3A4 = test system: CYP3A4; set-up: method as in PMID 34959473; settings: cited from earlier work
BCRP = target: T2, BCRP (Homo sapiens, UniProt Q9UNQ0); experiment: Bi-directional transport across MDCKII BCRP and WT/EV cell monolayers
T2 sequence (Q9UNQ0 1-655): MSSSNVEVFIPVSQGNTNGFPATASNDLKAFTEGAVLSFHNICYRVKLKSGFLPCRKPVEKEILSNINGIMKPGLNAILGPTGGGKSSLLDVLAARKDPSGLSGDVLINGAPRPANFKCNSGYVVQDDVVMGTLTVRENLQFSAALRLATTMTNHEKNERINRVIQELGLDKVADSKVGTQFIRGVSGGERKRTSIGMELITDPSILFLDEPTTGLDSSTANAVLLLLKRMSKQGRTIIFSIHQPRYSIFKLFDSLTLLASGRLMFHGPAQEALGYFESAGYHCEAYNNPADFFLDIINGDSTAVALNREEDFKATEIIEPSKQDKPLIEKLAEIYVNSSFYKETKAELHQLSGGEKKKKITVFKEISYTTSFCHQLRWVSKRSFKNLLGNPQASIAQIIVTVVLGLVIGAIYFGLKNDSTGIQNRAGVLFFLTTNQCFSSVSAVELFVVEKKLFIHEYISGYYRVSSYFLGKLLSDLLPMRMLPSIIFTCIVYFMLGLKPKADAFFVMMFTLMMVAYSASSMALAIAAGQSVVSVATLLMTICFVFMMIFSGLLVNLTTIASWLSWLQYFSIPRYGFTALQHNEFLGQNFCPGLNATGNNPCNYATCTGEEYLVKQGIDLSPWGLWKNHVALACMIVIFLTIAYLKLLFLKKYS

CYP1A1 = test system: CYP1A1; set-up: method as in PMID 34959473; settings: cited from earlier work
MRP4 = test system: MRP4; set-up: method as in PMID 26102284; settings: DPV at 10 μM; cited from earlier work

T1 sequence (P08183 whole entry): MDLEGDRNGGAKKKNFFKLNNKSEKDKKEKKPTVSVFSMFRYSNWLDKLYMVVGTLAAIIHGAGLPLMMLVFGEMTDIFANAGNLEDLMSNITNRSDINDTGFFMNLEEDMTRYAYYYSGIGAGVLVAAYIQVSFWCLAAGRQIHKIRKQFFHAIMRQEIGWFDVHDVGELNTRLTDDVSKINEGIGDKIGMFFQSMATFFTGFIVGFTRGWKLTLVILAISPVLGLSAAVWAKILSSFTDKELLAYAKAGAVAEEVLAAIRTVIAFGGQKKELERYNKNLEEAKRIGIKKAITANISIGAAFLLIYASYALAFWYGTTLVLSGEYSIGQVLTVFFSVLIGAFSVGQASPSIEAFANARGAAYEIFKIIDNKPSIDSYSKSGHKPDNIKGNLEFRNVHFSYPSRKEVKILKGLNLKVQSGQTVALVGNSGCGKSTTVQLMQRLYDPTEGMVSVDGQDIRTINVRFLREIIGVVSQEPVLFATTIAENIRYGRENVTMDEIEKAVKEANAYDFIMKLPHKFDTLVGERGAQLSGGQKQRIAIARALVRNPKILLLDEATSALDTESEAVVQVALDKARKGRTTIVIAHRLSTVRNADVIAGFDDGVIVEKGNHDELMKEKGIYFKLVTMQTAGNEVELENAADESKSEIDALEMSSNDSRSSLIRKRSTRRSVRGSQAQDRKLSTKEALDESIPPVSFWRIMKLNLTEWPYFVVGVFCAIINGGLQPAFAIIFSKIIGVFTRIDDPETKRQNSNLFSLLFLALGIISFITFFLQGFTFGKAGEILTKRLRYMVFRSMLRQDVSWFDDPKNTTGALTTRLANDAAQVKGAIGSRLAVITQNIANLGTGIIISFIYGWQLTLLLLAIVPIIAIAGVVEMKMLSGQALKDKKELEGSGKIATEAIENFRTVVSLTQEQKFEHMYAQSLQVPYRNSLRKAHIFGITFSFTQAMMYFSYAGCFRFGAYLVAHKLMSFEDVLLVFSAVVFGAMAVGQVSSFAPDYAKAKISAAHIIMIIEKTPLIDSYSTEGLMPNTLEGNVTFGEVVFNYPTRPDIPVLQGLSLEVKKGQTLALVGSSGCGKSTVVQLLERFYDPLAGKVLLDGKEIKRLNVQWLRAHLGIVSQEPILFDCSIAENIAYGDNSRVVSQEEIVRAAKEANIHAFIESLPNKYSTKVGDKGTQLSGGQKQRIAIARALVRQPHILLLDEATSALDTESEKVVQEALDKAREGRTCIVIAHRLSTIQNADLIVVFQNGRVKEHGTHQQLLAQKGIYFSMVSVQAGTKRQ

Cc1cc(C)c(Nc2ccnc(Nc3ccc(C#N)cc3)n2)c(C)c1 [DPV, dapivirine]
DPV ER in MDCKII P-gp cells with verapamil, reduced to % of ER without (P-gp; 0.5 μM DPV, 100 μM verapamil): 65%
Impact on Papp of digoxin across MDCKII P-gp monolayers (either direction) (P-gp; 5 μM DPV, 1 μM digoxin): no significant impact
Substrate status for P-gp (P-gp; cellular system): not a substrate
efflux ratio at 90 min, 0.5 μM (P-gp; dog, MDCK-MDR1, pH 7.4, 0.5 μM DPV, read-out: Net flux ratio (ER MDCKII P-gp / ER MDCKII WT)): 1.31
Papp at 360 min, 182 µM [1]: 0.88 ± 0.53 ×10⁻⁶ cm/s
Substrate of CYP3A4 (CYP3A4): substrate
DPV ER in MDCKII BCRP cells with Ko143, reduced to % of ER without (BCRP; 0.5 μM DPV, 1 μM Ko143): 85%
Impact on Papp of nitrofurantoin across MDCKII BCRP monolayers (either direction) (BCRP; 5 μM DPV, 1 μM nitrofurantoin): no significant impact
Substrate status for BCRP (BCRP; cellular system): not a substrate
efflux ratio at 90 min, 0.5 μM (BCRP; dog, pH 7.4): 1.33
Substrate of CYP1A1 (CYP1A1): substrate
Effect on MRP4 expression level (MRP4): downregulating
